Here are results for five compounds from paper PMC10644342, “Improved Antibacterial Activity of 1,3,4-Oxadiazole-Based Compounds That Restrict Staphylococcus aureus Growth Independent of LtaS Function” (ACS Infectious Diseases, 2023).

Structures are written as SMILES. ≈ marks a conversion by molar mass, not a printed value. Like-named read-outs stand apart in the source and are kept apart here.

One series has as its system HL-60 cell line. As to conditions: cited from earlier work.
The test system of another series is S. aureus. Also noted: method as in PMID 23401520. As to conditions: cited from earlier work.
In a further series the test system is LtaS. Set-up: method as in PMID 29300473. As to conditions: LtaS in artificial liposomes; cited from earlier work.
For series [1], the system named is S. aureus wild type, clpX, ltaS, tarO mutants and ltaS overexpression strains. The series is described as follows: MIC against LtaS deletion and overexpression strains. The series is classed as cell-based, Staphylococcus aureus. The note with it: Staphylococcus aureus, NEWMAN. Here is the method:
S. aureus, S. epidermidis, E. faecalis, and E. faecium strains were routinely cultivated on tryptic soy agar (TSA) and grown for 18 h at 37 °C. S. aureus single colonies were subsequently transferred into 2 mL of tryptic soy broth (TSB) and grown for a further 18 h at 37 °C while being shaken at 180 rpm. S. pyogenes, S. agalactiae, and S. dysgalactiae strains were routinely cultured on TSA supplemented with 5% sheep blood and grown for 18 h at 37 °C with 5% CO2. E. coli was grown in LB broth at 37 °C. For LtaS-deficient strains, TSB was supplemented with 0.5 M NaCl to provide an osmotically balanced environment and instead grown at 30 °C. For strains harboring the pRMC2 tetracycline inducible vector,[61] the growth medium was supplemented with 10 μg/mL chloramphenicol and […] anhydrotetracycline hydrochloride (Sigma). Phenylalanine-arginine β-naphthylamide (PAβN) (Sigma) was dissolved in sterile water.
B. subtilis, staphylococcal, and enterococcal strains were grown in Mueller Hinton broth (MHB), while streptococcal strains were grown in MHB supplemented with 5% laked horse blood. All strains were grown for 18 h at 37 °C. The overnight cultures were subsequently subcultured 1:200 and grown to the exponential phase (OD600nm = 0.5–0.6) in fresh broth. 1771 and its derivatives 9–14 were reconstituted in DMSO and further diluted by performing a 1:2 serial dilution ranging between 256 and 0.125 μg/mL in a 96-well microtiter plate. One hundred microliters of 0.5 McFarland standardized inoculum (approximately equal to 5 × 10^5 cfu) were then dispensed into each well in the 96-well microtiter plate. The plate was incubated for 18 h at 37 °C.
For overexpression studies, full-length ltaS was amplified by PCR using MRSA strian LAC genomic DNA, primer pair LtaS-FW: 5′-[…]-3′ and LtaS-RV: 5′-[…]-3′, and Phusion High-Fidelity DNA Polymerase (Thermo Fisher). The resulting PCR product was cloned into the tetracycline inducible plasmid pRMC2 using SacI and KpnI restriction sites and T4 ligase (NEB). The cloned vector was subsequently transformed into RN4220 followed by LAC through electroporation.

The next series concerns LTA. The series is described as follows: LTA quantification by Western blot. The series is classed as cell-based, Staphylococcus aureus. As to conditions: strain LAC, 1× and 4× the MIC. Here is the method: Overnight cultures of S. aureus strains were diluted 1:200 in fresh TSB and grown to an optical density of OD600nm 0.3. […] Vancomycin and daptomycin at 1× and 4× MIC were also included as control antibiotics. Cells were then normalized to have 10 mL of OD600nm 0.6, pelleted at 4000 rpm, and resuspended in 300 μL of PBS containing 200 μg/mL lysostaphin. This suspension was then incubated at 37 °C for 45 min to allow digestion of the cell wall to occur. One hundred microlitres of 4× SDS sample buffer were then added, and the mixture was boiled at 95 °C for 20 min. The insoluble material was then removed by pelleting at 16,000 rpm for 10 min. The supernatant containing LTA was then subjected to SDS-PAGE on a 4–20% Tris-glycine gel (Bio-Rad). The gel was transferred onto a PVDF membrane using a Trans-Blot Turbo Transfer System (Bio-Rad). The membrane was blocked overnight in TBST containing 5% semi-skimmed milk before being incubated with a mouse anti-LTA antibody (Hycult; HM2048; 1:2000 dilution) followed by a goat antimouse-HRP secondary antibody (Proteintech; SA00001; 1:2000 dilution) before being visualized using an Amersham-ECL kit (Cytiva).
On the technique in general: In western blotting, separated proteins are transferred to a membrane and probed.

On to `[H]/N=C(/N)N[C@H]1[C@H](O)[C@@H](O)[C@H](O[C@@H]2O[C@@H](C)[C@](O)(C=O)[C@H]2O[C@@H]2O[C@@H](CO)[C@H](O)[C@@H](O)[C@@H]2NC)[C@@H](N/C(N)=N\[H])[C@@H]1O` [streptomycin], for which the “Cell health index (CHI)” value in the series on HL-60 cell line is given as 0.19. For the same compound, the “frequency of mutant selection” value in the series with S. aureus is recorded as < 10^–7.
By MIC is commonly meant the lowest concentration that inhibits growth of the organism. Read a high MIC as a less susceptible organism. On to `Nc1c(/N=N/c2ccc(-c3ccc(/N=N/c4cc(S(=O)(=O)O)c5ccccc5c4N)cc3)cc2)cc(S(=O)(=O)O)c2ccccc12` [Congo red], for which, in the series with LtaS, the “inhibition of LtaS polymerization activity” value was “blocked LtaS function”. For the same compound, the MIC is over 512 mg/L in series [1], 64 mg/L (≈ 98.1 µM) in series [1] (Newman ΔtarO), 64 mg/L (≈ 98.1 µM) in series [1] (Newman ΔtarO pRMC2 (empty vector)) and 256 mg/L (≈ 392 µM) in series [1] (Newman ΔtarO pltaS (ltaS overexpression)).
With `CCCCCCCCCC(=O)N[C@@H](Cc1c[nH]c2ccccc12)C(=O)N[C@H](CC(N)=O)C(=O)N[C@@H](CC(=O)O)C(=O)N[C@@H]1C(=O)NCC(=O)N[C@@H](CCCN)C(=O)N[C@@H](CC(=O)O)C(=O)N[C@H](C)C(=O)N[C@@H](CC(=O)O)C(=O)NCC(=O)N[C@H](CO)C(=O)N[C@@H]([C@H](C)CC(=O)O)C(=O)N[C@@H](CC(=O)c2ccccc2N)C(=O)O[C@@H]1C` [daptomycin], in the series with LTA, the “LTA signal by Western blot” value is on record as “No reduction in LTA”.
Still for that read-out and setting: as for `Oc1cc(Cl)ccc1Oc1ccc(Cl)cc1Cl` [triclosan], the entry is “substantial decrease in LTA production”.
For the compound `CN[C@H](CC(C)C)C(=O)N[C@H]1C(=O)N[C@@H](CC(N)=O)C(=O)N[C@H]2C(=O)N[C@H]3C(=O)N[C@H](C(=O)N[C@H](C(=O)O)c4cc(O)cc(O)c4-c4cc3ccc4O)[C@H](O)c3ccc(c(Cl)c3)Oc3cc2cc(c3O[C@@H]2O[C@H](CO)[C@@H](O)[C@H](O)[C@H]2O[C@H]2C[C@](C)(N)[C@H](O)[C@H](C)O2)Oc2ccc(cc2Cl)[C@H]1O` [vancomycin], in the series with LTA, the “LTA signal by Western blot” value is listed as “No reduction in LTA”. The “Cell health index (CHI)” value in the series with HL-60 cell line (antibiotics used in the training set, Table S2) is 0.16.
